Earlier results as cited in US20250235578A1, “WOUND DRESSING COMPOSITIONS AND METHODS OF USE AND PREPARATION THEROF” (T.J.Smith and Nephew,Limited, priority 2021, published 2025).

Details: under normal conditions

## [N]=O [NO, nitric oxide]
  maximum solubility in water: approximately 1.7 mM
